Assay results published in EP3943081A1, “OPTIC NEUROPATHY TREATMENT AND REDUCTION OF STEROID- INDUCED OXIDATIVE STRESS WITH STABILIZED POLYUNSATURATED SUBSTANCES” (Retrotope, Inc., priority 2014, dated 2015).

Legend:
[1] = system: Dhcr7-deficient Neuro2a neuroblastoma cells; test: Oxysterol levels in Dhcr7-deficient Neuro2a neuroblastoma cells treated with fatty acid; assay type: cell-based; conditions: for levels of oxysterols associated with free radical induced oxidation: 20 micromolar, Dhcr7 expression depleted by RNA interference, 7-DHC accumulates
Experimental: Dhcr7-deficient Neuro2a neuroblastoma cells were treated with D2-linoleic acid, and non-deuterated linoleic acid ("Lin") was used in a control experiment. The level of Dhcr7 gene expression was depleted by RNA interference, leading to accumulation of 7-DHC in the cells. 7-DHC is 1-2 orders of magnitude more oxidizeable than linoleic acid, and so can easily initiate lipid peroxidation (See Yin et al., "Free Radical Lipid Peroxidation: Mechanisms and Analysis," Chem Rev. (2011), 111(10), 5944-5972).

[2] = system: Q-less (coq2, coq3, and coq5) yeast mutants; conditions: cited from earlier work; for sensitivity of Q-less yeast to treatment: compared with the wild-type parental strain
[3] = system: wild-type (the parental genetic background is strain W303-1B) cells; conditions: following a four hour treatment; 240 min; cited from earlier work

| SMILES | levels of oxysterols associated with free radical induced oxidation [1] | sensitivity of Q-less yeast to treatment [2] | other results |
| --- | --- | --- | --- |
| [2H]C([2H])(/C=C\CCCCC)/C=C\CCCCCCCC(=O)O [D2-Lin, 11,11-Dideutero-cis,cis-9,12-Octadecadienoic acid] | low levels | – | oxidative stress ([1]; 20 micromolar (same concentration as Lin), judged by oxysterol levels): did not induce oxidative stress |
| CCCCC/C=C\C/C=C\CCCCCCCC(=O)O [Lin, cis, cis-9,12-Octadecadienoic acid] | substantially increased | – | – |
| CCCCC/C=C\C/C=C\C/C=C\C/C=C\CCCC(=O)O [arachidonic acid] | – | hypersensitive | – |
| CC/C=C\C/C=C\C/C=C\CCCCCCCC(=O)O [linolenic acid, cis,cis,cis-9,12,15-Octadecatrienoic acid] | – | – | viable wild-type cells [3]: 70%; viable Q-less yeast mutants ([2]; following a four hour treatment, 240 min): Less than 1% |
| CCCCCCCC/C=C\CCCCCCCC(=O)O [oleic acid] | – | behave the same as the wild-type parental strain | – |
